According to paper PMC7793531 (International Journal of Molecular Sciences, 2020):
Like-named read-outs stand apart in the source and are kept apart here. Non-standard residues stand in square brackets, D forms with d. Residues, ends and D or L forms follow the SMILES beside them. ξ: configuration not given here. Oic(3aξ,7aξ) = O=C(O)[C@@H]1CC2CCCCC2N1; hArg = N=C(N)NCCCC[C@H](N)C(=O)O; Dab = NCC[C@H](N)C(=O)O

What was measured:
[1] = In vitro enzymatic stability in human blood serum (LC-SWATH-MS); assay type: in vitro ADME; conditions: pooled human blood serum, 37 °C
Description: Rapid renal clearance and enzymatic degradation are classified as most important disadvantages of peptides as drugs. Covalent linkage to plasma proteins or chemical modifications, including amide bond modifications, might improve their half-lives. We performed proteolytic stability studies in human blood serum to investigate whether the introduction of urea bonds affected the half-lives of compounds from each of synthesized group of hybrids. Compounds 3, 6 and 7 were incubated with human serum at 37 °C. Samples were taken at different time intervals and analyzed using LC-SWATH-MS [88, 89, 90]. […] Hybrids 6 and 7 were stable toward enzymatic degradation, with 50% of each compound still being intact after 96 h (Figure 5). […] Overall, it can be concluded that the substitution of an amide bond with a urea bond has a positive effect on the proteolytic stability of the examined inhibitors.
The study was conducted in full accordance with ethical principles in accordance with the ICH E6 (R2) Guideline for Good Clinical Practice and the Code of Good Customs in Science developed by the Polish Academy of Sciences. Signed consent for using serum was obtained from volunteers. The Rector’s Commission for Ethics of Scientific Research with Human Participation, University of Warsaw, Warsaw, Poland gave the ethical approval (approval number 51/2020). Human blood from four healthy persons was directly drawn into evacuated tubes and left undisturbed at room temperature for 1 h to clot. Tubes were centrifuged at 2500× g for 10 min to prevent possible platelet activation. Serum was pipetted out of the blood collection tubes, pooled and collected in microtubes.
A degradation assay was adapted from a method described previously. Human blood serum was preactivated in Eppendorf ThermoMixer® Comfort (Hamburg, Germany) at 37 °C for 20 min (350 rpm). Next, 20 μL of aqueous urea–peptide hybrid stock solution was added to give ∼750 μg/mL final compound concentration, and incubation was continued. At selected time intervals, 50 μL of the mixture was collected and quenched by adding 200 μL of ACN:H2O:FA mixture (89:10:1, v:v:v). The obtained suspension was vortexed for 1 min (3000 min^−1) and centrifuged for 10 min in 4 °C (11,000× g). 100 μL of supernatant was collected and lyophilized. The samples reconstituted in 1 mL of 10 mM ammonium formate with 0.1% FA were subjected to LC-MS. Relative concentration at time intervals was calculated using peak area of either individual or most intense fragment of compound of interest. Analyst software version 1.7.1 was used for data acquisition, Peak View 2.2 and MultiQuant 2.1 (Sciex, ON) were used for data processing. Detailed analytical data can be found in Supplementary Materials (Figures S17–S45). […]

VEGF-A165/NRP-1 complex = target: T1, VEGF-A165/NRP-1 complex (Homo sapiens, UniProt O14786); conditions: read-out: IC50, VEGF-A165/NRP-1 complex inhibitory effect, cited from earlier work
T1 construct: purchased R&D Systems
T1 sequence (O14786 22-641 limits assumed): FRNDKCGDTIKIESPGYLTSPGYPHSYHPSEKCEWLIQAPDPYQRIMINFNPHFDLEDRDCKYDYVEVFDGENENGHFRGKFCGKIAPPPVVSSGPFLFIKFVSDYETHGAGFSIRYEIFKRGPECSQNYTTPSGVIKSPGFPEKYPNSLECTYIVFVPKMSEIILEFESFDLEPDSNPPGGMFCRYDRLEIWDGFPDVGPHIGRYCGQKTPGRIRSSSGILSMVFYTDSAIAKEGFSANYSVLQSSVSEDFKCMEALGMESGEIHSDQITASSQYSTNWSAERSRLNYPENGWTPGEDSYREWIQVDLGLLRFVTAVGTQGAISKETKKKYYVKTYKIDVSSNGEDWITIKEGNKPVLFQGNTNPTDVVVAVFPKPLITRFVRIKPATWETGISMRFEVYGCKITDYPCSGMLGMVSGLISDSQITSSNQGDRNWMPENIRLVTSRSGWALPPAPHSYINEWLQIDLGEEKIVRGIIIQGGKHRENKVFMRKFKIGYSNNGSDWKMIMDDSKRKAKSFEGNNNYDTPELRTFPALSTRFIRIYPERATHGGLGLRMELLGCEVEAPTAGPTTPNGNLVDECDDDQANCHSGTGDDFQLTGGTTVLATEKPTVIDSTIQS

Compound | half-life [1] | IC50 (VEGF-A165/NRP-1 complex; data already published) | IC50 (VEGF-A165/NRP-1 complex; earlier urea analogue)
N=C(N)NCCCC[C@H](N)C(=O)NCCCC[C@H](N)C(=O)N[C@@H](CCN)C(=O)N1C2CCCCC2C[C@H]1C(=O)N[C@@H](CCCNC(=N)N)C(=O)O (stereo partly drawn) [PP, Lys(hArg)-Dab-Oic-Arg, reference compound] (H-K(hArg)[Dab][Oic(3aξ,7aξ)]R-OH) | 8 h | 2.3 µM | 
Lys(Arg^U)–Dab–Oic–Arg |  |  | 5.5 µM
